Target: CDK2 (UniProt P24941)
Assay: Enzyme Assay
Settings: concentration not given here

| SMILES | inhibition [%] |
| --- | --- |
| O=S(=O)(Nc1ccc2[nH]nc(-c3ccccc3)c2c1)c1cccc2cccnc12 | 99 |
| CC(C)c1ccc(-c2n[nH]c3ccc(NS(=O)(=O)c4ccccc4S(C)(=O)=O)cc23)cc1 | 24 |
| CN(C)c1ccc(-c2n[nH]c3ccc(NS(=O)(=O)c4ccccc4S(C)(=O)=O)cc23)cc1 | 81 |
| O=S(=O)(Nc1ccc2[nH]nc(-c3ccccc3)c2c1)C1CCNCC1 | 13 |
| CS(=O)(=O)c1ccccc1S(=O)(=O)Nc1ccc2[nH]nc(-c3cccc([N+](=O)[O-])c3)c2c1 | 82 |
| Nc1n[nH]c2ccc(NS(=O)(=O)c3c(F)cccc3F)cc12 | 12 |
| CCCCS(=O)(=O)Nc1ccc2[nH]nc(-c3ccccc3)c2c1 | 30 |
| CS(=O)(=O)c1ccccc1S(=O)(=O)Nc1ccc2[nH]nc(-c3cccc(C#N)c3)c2c1 | 90 |
| N#Cc1ccccc1S(=O)(=O)Nc1ccc2[nH]nc(-c3ccccc3)c2c1 | 69 |
| CS(=O)(=O)c1ccccc1S(=O)(=O)Nc1ccc2[nH]nc(-c3cccc(OC(F)(F)F)c3)c2c1 | 60 |
| COc1ccc(-c2n[nH]c3ccc(NS(=O)(=O)c4ccccc4S(C)(=O)=O)cc23)c(OC)c1 | 27 |
| CC(C)c1cccc(-c2n[nH]c3ccc(NS(=O)(=O)c4ccccc4S(C)(=O)=O)cc23)c1 | 59 |
| CS(=O)(=O)c1ccccc1S(=O)(=O)Nc1ccc2[nH]nc(/C=C/c3ccccc3)c2c1 | 96 |
| Nc1ccc(S(=O)(=O)Nc2ccc3[nH]nc(-c4ccccc4)c3c2)cc1 | 70 |
| CC1(C)[C@H]2CC[C@]1(CS(=O)(=O)Nc1ccc3[nH]nc(-c4ccccc4)c3c1)C(=O)C2 | 30 |
| CS(=O)(=O)c1ccccc1S(=O)(=O)Nc1ccc2[nH]nc(-c3ccc(C(F)(F)F)cc3)c2c1 | 83 |
| CS(=O)(=O)c1ccccc1S(=O)(=O)Nc1ccc2[nH]nc(-c3ccc(-c4ccccc4)c(F)c3)c2c1 | 0 |
| O=S(=O)(Nc1ccc2[nH]nc(-c3ccccc3)c2c1)c1ccccc1OC(F)(F)F | 74 |
| CS(=O)(=O)c1ccc(F)cc1S(=O)(=O)Nc1ccc2[nH]nc(-c3ccccc3)c2c1 | 87 |
| CS(=O)(=O)c1ccccc1S(=O)(=O)Nc1ccc2[nH]nc(-c3ccc4[nH]ccc4c3)c2c1 | 73 |
| Cc1cc(C)c(S(=O)(=O)Nc2ccc3[nH]nc(-c4ccccc4)c3c2)c(C)c1 | 79 |
| CS(=O)(=O)c1ccccc1S(=O)(=O)Nc1ccc2[nH]nc(-c3ccc(F)c(F)c3)c2c1 | 72 |
| O=S(=O)(Nc1ccc2[nH]nc(-c3ccccc3)c2c1)c1cccc2nonc12 | 67 |
| COc1ccc(OC)c(S(=O)(=O)Nc2ccc3[nH]nc(-c4ccccc4)c3c2)c1 | 51 |
| CS(=O)(=O)c1ccccc1S(=O)(=O)Nc1ccc2[nH]nc(-c3ccc(OCc4ccccc4)c(F)c3)c2c1 | 41 |

| SMILES | inhibition [%] |
| --- | --- |
| N#Cc1cccc(S(=O)(=O)Nc2ccc3[nH]nc(-c4ccccc4)c3c2)c1 | 75 |
| CC(=O)Nc1n[nH]c2ccc(NS(=O)(=O)c3cc(F)cc(F)c3)cc12 | 82 |
| O=S(=O)(Nc1ccc2[nH]nc(-c3ccccc3)c2c1)c1ccc(F)c(F)c1 | 67 |
| O=S(=O)(Nc1ccc2[nH]nc(-c3cc4ccccc4[nH]3)c2c1)c1ccccc1 | 100 |
| COc1ccc(-c2n[nH]c3ccc(NS(=O)(=O)c4ccccc4S(C)(=O)=O)cc23)c(OC)c1OC | 21 |
| Nc1n[nH]c2ccc(NS(=O)(=O)c3cccc(F)c3)cc12 | 34 |
| CS(=O)(=O)c1ccccc1S(=O)(=O)Nc1ccc2[nH]nc(-c3ccc4c(c3)OCO4)c2c1 | 76 |
| CS(=O)(=O)c1ccccc1S(=O)(=O)Nc1ccc2[nH]nc(-c3cc4ccccc4o3)c2c1 | 93 |
| Nc1n[nH]c2ccc(NS(=O)(=O)c3c(Cl)cccc3Cl)cc12 | 18 |
| CS(=O)(=O)c1ccccc1S(=O)(=O)Nc1ccc2[nH]nc(-c3cccc4c3oc3ccccc34)c2c1 | 13 |
| C[Si](C)(C)C#Cc1cccc(-c2n[nH]c3ccc(NS(=O)(=O)c4ccccc4S(C)(=O)=O)cc23)c1 | 7 |
| CS(=O)(=O)c1ccccc1S(=O)(=O)Nc1ccc2[nH]nc(/C=C/c3ccc(Cl)cc3)c2c1 | 96 |
| Nc1cc(Cl)cc(Cl)c1S(=O)(=O)Nc1ccc2[nH]nc(-c3ccccc3)c2c1 | 58 |
| O=C(O)c1cccc(S(=O)(=O)Nc2ccc3[nH]nc(-c4ccccc4)c3c2)c1 | 40 |
| O=[N+]([O-])c1ccc(S(=O)(=O)Nc2ccc3[nH]nc(-c4ccccc4)c3c2)cc1 | 50 |
| CS(=O)(=O)c1ccc(S(=O)(=O)Nc2ccc3[nH]nc(-c4ccccc4)c3c2)cc1 | 50 |
| CS(=O)(=O)c1ccc(-c2n[nH]c3ccc(NS(=O)(=O)c4ccccc4S(C)(=O)=O)cc23)cc1 | 75 |
| O=C(NCc1ccc(S(=O)(=O)Nc2ccc3[nH]nc(-c4ccccc4)c3c2)s1)c1ccccc1 | 40 |
| CS(=O)(=O)c1ccccc1S(=O)(=O)Nc1ccc2[nH]nc(-c3cccc(C(F)(F)F)c3)c2c1 | 81 |
| CN(C)c1cccc2c(S(=O)(=O)Nc3cccc(-c4n[nH]c5ccc(NS(=O)(=O)c6ccccc6S(C)(=O)=O)cc45)c3)cccc12 | 20 |
| CC(C)(C)c1ccc(-c2n[nH]c3ccc(NS(=O)(=O)c4ccccc4S(C)(=O)=O)cc23)cc1 | 0 |
| CS(=O)(=O)c1ccccc1S(=O)(=O)Nc1ccc2[nH]nc(-c3ccc(F)c(Cl)c3)c2c1 | 77 |
| CN(C)c1cccc2c(S(=O)(=O)Nc3ccc4[nH]nc(-c5ccccc5)c4c3)cccc12 | 84 |
| CS(=O)(=O)c1ccccc1S(=O)(=O)Nc1ccc2[nH]nc(C#Cc3ccccc3)c2c1 | 90 |
| Cc1cc2[nH]nc(-c3ccccc3)c2cc1NS(=O)(=O)c1ccccc1S(C)(=O)=O | 62 |

Results, then the compound that gave them:

| inhibition [%] | SMILES |
| --- | --- |
| 92 | CS(=O)(=O)c1ccccc1S(=O)(=O)Nc1ccc2[nH]nc(NCc3ccccc3)c2c1 |
| 50 | COc1ccccc1-c1n[nH]c2ccc(NS(=O)(=O)c3ccccc3S(C)(=O)=O)cc12 |
| 66 | Cc1ccc(-c2n[nH]c3ccc(NS(=O)(=O)c4ccccc4S(C)(=O)=O)cc23)cc1 |
| 74 | CCOc1ccc(-c2n[nH]c3ccc(NS(=O)(=O)c4ccccc4S(C)(=O)=O)cc23)cc1 |
| 50 | CS(=O)(=O)c1ccccc1S(=O)(=O)Nc1ccc2[nH]nc(-c3cccc(F)c3F)c2c1 |
| 19 | CSc1ccccc1-c1n[nH]c2ccc(NS(=O)(=O)c3ccccc3S(C)(=O)=O)cc12 |
| 83 | CS(=O)(=O)c1ccccc1S(=O)(=O)Nc1ccc2[nH]nc(-c3ccc(F)cc3F)c2c1 |
| 78 | Cc1ccc(-c2n[nH]c3ccc(NS(=O)(=O)c4ccccc4S(C)(=O)=O)cc23)cc1N |
| 67 | COc1cccc(-c2n[nH]c3ccc(NS(=O)(=O)c4ccccc4S(C)(=O)=O)cc23)c1 |
| 82 | CS(=O)(=O)c1ccccc1S(=O)(=O)Nc1ccc2[nH]nc(Sc3ccccc3)c2c1 |
| 70 | Cc1ccc(-c2n[nH]c3ccc(NS(=O)(=O)c4ccccc4S(C)(=O)=O)cc23)cc1F |
| 37 | COC(=O)/C=C/c1n[nH]c2ccc(NS(=O)(=O)c3ccccc3S(C)(=O)=O)cc12 |
| 95 | CS(=O)(=O)c1ccccc1S(=O)(=O)Nc1ccc2[nH]nc(NC(=O)c3ccccc3)c2c1 |
| 100 | CS(=O)(=O)c1ccccc1S(=O)(=O)Nc1ccc2[nH]nc(Nc3ccccc3)c2c1 |
| 51 | CNc1n[nH]c2ccc(NS(=O)(=O)c3ccccc3S(C)(=O)=O)cc12 |
| 80 | CS(=O)(=O)c1ccccc1S(=O)(=O)Nc1ccc2[nH]nc(-c3cccc(Cl)c3)c2c1 |

| inhibition [%] | SMILES |
| --- | --- |
| 61 | CS(=O)(=O)c1ccccc1S(=O)(=O)Nc1ccc2[nH]nc(-c3ccc(C(=O)O)cc3)c2c1 |
| 55 | CS(=O)(=O)c1ccccc1S(=O)(=O)Nc1ccc2[nH]nc(-c3ccc(Cl)s3)c2c1 |
| 23 | CS(=O)(=O)c1ccccc1S(=O)(=O)Nc1ccc2[nH]nc(-c3ccc(Cl)cc3Cl)c2c1 |
| 50 | CS(=O)(=O)c1ccccc1S(=O)(=O)Nc1ccc2[nH]nc(-c3ccccc3N)c2c1 |
| 27 | CS(=O)(=O)c1ccccc1S(=O)(=O)Nc1ccc2[nH]nc(-c3cc(Cl)ccc3Cl)c2c1 |
| 99 | CS(=O)(=O)c1ccccc1S(=O)(=O)Nc1ccc2[nH]nc(-c3ccc[nH]3)c2c1 |
| 60 | CCOc1cccc(-c2n[nH]c3ccc(NS(=O)(=O)c4ccccc4S(C)(=O)=O)cc23)c1 |
| 0 | CS(=O)(=O)c1ccccc1S(=O)(=O)Nc1ccc2[nH]nc(-c3cccc(Cl)c3Cl)c2c1 |
| 25 | Cc1ccccc1-c1n[nH]c2ccc(NS(=O)(=O)c3ccccc3S(C)(=O)=O)cc12 |
| 31 | CCOc1ccccc1-c1n[nH]c2ccc(NS(=O)(=O)c3ccccc3S(C)(=O)=O)cc12 |
| 73 | CS(=O)(=O)c1ccccc1S(=O)(=O)Nc1ccc2[nH]nc(-c3cccc(O)c3)c2c1 |
| 73 | CS(=O)(=O)c1ccccc1S(=O)(=O)Nc1ccc2[nH]nc(-c3ccc(CO)cc3)c2c1 |
| 88 | CS(=O)(=O)c1ccccc1S(=O)(=O)Nc1ccc2[nH]nc(-c3cccc(N)c3)c2c1 |
| 85 | CS(=O)(=O)c1ccccc1S(=O)(=O)Nc1ccc2[nH]nc(-c3ccc(N)cc3)c2c1 |
| 84 | CSc1ccc(-c2n[nH]c3ccc(NS(=O)(=O)c4ccccc4S(C)(=O)=O)cc23)cc1 |
| 96 | CCCNC(=O)c1n[nH]c2ccc(NS(=O)(=O)c3ccccc3S(C)(=O)=O)cc12 |

From the Kinase Knowledgebase extract (Sharma et al. 2016)
